Assay results reported in the METLIN SMRT retention time set (Domingo-Almenara et al. 2019).

Experiment: gradient 5% acetonitrile 3 min, to 50% in 2 min, to 85% in 15 min, held 3 min, 100 µL/min
Conditions: column: Zorbax Extend-C18 2.1 x 50 mm; eluents: water / acetonitrile, 0.1% formic acid
How it was run: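 Each retention time is based on an adduct peak selected computationally and verified by manual inspection. Measurements used HPLC–quadrupole time-of-flight mass spectrometry in positive and negative ionization mode on mixtures of ~100 pure standards. Chromatography ran on a Zorbax Extend-C18 column (2.1 × 50 mm, 1.8 μm) at 100 μL/min with water and acetonitrile, each containing 0.1% formic acid, and dead and dwell volumes of 40 μL and 900 μL.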

RP-LC retention time	SMILES
921 s	CC(C)CN1CCn2cc(S(=O)(=O)N3CCN(c4ccccc4)CC3)cc2C1=O
709 s	Cc1ccccc1C(=O)CC1(O)C(=O)Nc2ccccc21 (configuration not stated)
690 s	Cc1cc(C)cc(NC(=O)CSc2ccc(N3CCCC(C(=O)NC4CC4)C3)nn2)c1 (configuration not stated)
848 s	Cc1ccc(-c2nc3ncccn3c2Nc2ccc(C)c(C)c2)cc1
856 s	COC(=O)C1=C(C)NC2=C(C(=O)c3ccccc32)C1c1ccc(OC)cc1OC (configuration not stated)
830 s	CC(C)NC(=O)c1ccc(OCC2CCCN(C(=O)c3ccccc3F)C2)cc1 (configuration not stated)
622 s	CC1(C)CC(=O)c2cn(-c3ccccc3)c(=O)c(C(=O)N3CCN(c4ccccn4)CC3)c2C1
742 s	COC(=O)CCSCC(=O)Nc1ccc(C)cc1C
759 s	CC(C)(C)c1cc(NC(=O)COc2ccccc2F)n(CCO)n1
916 s	Cc1c(Cl)cccc1NS(=O)(=O)c1cc2c(s1)CCN(C(=O)C1CCC1)C2
714 s	CC1(O)CCOC2(CCN(Cc3cn[nH]c3-c3ccc(F)cc3)CC2)C1 (configuration not stated)
978 s	CCn1c(C)c(C(=O)CN(CC2CCCO2)C(=O)c2ccc(Cl)cc2)c(C)c1C(=O)OC (configuration not stated)
712 s	COc1ccc(NC(=O)Cn2nc(C(=O)N3CCOCC3)c3ccccc32)cc1
757 s	O=C(NCc1ccc(F)c(Cl)c1)C1CCN(c2cnc3nccnc3c2)CC1
935 s	COc1ccc(CNC(=O)c2nnn(Cc3nc(-c4ccc(C)cc4)oc3C)c2N)cc1OC
597 s	CC(C)n1cnc2cc(CNC(=O)c3ccccc3Cl)ccc21
1240 s	COC(=O)c1ccc(Cl)cc1NC(=O)N1CCN(C)c2ccccc21
577 s	O=C(NCc1ccc(N2CCCCC2)cc1)c1cn2c(n1)CSCC2
942 s	COC(=O)C1=CN(c2cccc(OC)c2)c2cc(Br)ccc2S1(=O)=O
858 s	COc1ccc(N2CC(c3noc(-c4ccccc4OC)n3)CC2=O)cc1 (configuration not stated)
1310 s	CCOC(=O)c1cc([N+](=O)[O-])sc1NC(=O)c1ccc(Cl)s1
727 s	Cc1ccccc1Nc1c(-c2cccc(O)c2)nc2ccc(Br)cn12

RP-LC retention time	SMILES
733 s	Cn1c(=O)n([C@H]2CCN(C(=O)C3(c4ccccc4)CC3)C2)c2ncccc21
886 s	CCn1nc(C)n2cc(S(=O)(=O)NCc3cc(F)cc(F)c3)cc2c1=O
938 s	COc1ccc(NC(=O)Cn2c(C)nc3c(sc4nc(-c5ccccc5)ccc43)c2=O)cc1OC
632 s	O=S(=O)(c1ccc(-c2nnc(C3CC3)o2)o1)N1CCN(c2ccccn2)CC1
846 s	O=C(Nc1ccc(N2CCOCC2)cc1)c1cc(C2CC2)n2nccc2n1
624 s	COC(=O)c1ccc2c(=O)n(-c3ccccc3)c(N3CCN(C)CC3)nc2c1
1030 s	O=C1CC(c2noc(-c3cccc(Cl)c3)n2)CN1c1ccc(F)cc1 (configuration not stated)
778 s	CCOc1ccc(-c2ccc(C)c(NC(=O)c3ccc(S(=O)(=O)N(C)C)cc3)c2)nn1
723 s	COc1cc2nc(C(=O)N3CCCCC3)cc(Nc3cccc(SC)c3)c2cc1OC
811 s	CCC(C)(C)C(=O)N1CCC2(CCc3nn(Cc4ccccc4)c(=O)n3CC2)CC1
629 s	COc1cc2c(cc1CNC(=O)Cn1cnc3cc4c(cc31)OCCO4)OCCCO2
813 s	Cc1ccc(CNC(=O)C2(C)Cn3cnc(C(=O)NCc4cccc(C)c4)c3C(=O)N2C2CC2)cc1 (configuration not stated)
778 s	COCc1c(C(=O)N2CC(F)(F)C[C@H]2c2nc(C)no2)noc1C
762 s	Cc1ccc(N2CCC(NC(=O)C(C)C)C2=O)cc1C (configuration not stated)
1170 s	CCN(C(C)=O)c1nc(-c2ccc(Br)cc2)cs1
1210 s	O=S(=O)(c1cc(F)ccc1F)N1CCc2nc(-c3ccc(Cl)cc3)ncc2C1
672 s	COc1ccc(OC)c(CNC(=O)C2CCCN(c3nnc4cccc(C)n34)C2)c1 (configuration not stated)
651 s	CCc1nnc2ccc(-c3noc(CNC(=O)c4ccccc4)n3)cn12
1130 s	O=S(=O)(c1ccccc1Br)N1CCc2nc(-c3ccc(F)cc3)ncc2C1
873 s	Cc1ccccc1NC(=O)N1CCC(CCNC(=O)C2(c3ccccc3)CC2)CC1
780 s	CCCn1ccc2sc(C)c(C(=O)NCc3ccc(OC)c(OC)c3)c2c1=O
860 s	CC(=O)c1cccc(NC(=O)N(c2ccccc2)c2ccccc2)c1

RP-LC retention time	SMILES
844 s	Cc1ccc(C2Cn3nnc(C(=O)N4CCN(C(=O)c5ccco5)CC4)c3CO2)cc1 (configuration not stated)
868 s	CCN(C(=O)C1CCCN1S(=O)(=O)c1cc2c(cc1C)NC(=O)C(C)O2)c1cccc(C)c1 (configuration not stated)
852 s	Cc1cccc(-n2c(=O)c3c(cc(C)n3C)n(CC(=O)Nc3ccccc3)c2=O)c1
766 s	CCn1nc(CNC(=O)Cc2cccs2)c2ccccc21
810 s	CC(C)NC(=O)CN1C(=O)C2CCCCN2c2ccc(S(=O)(=O)N3CCCC3)cc21 (configuration not stated)
740 s	COc1cccc(-c2cc(C(=O)N3CCC(NC(=O)c4cccc(Cl)c4)CC3)[nH]n2)c1
659 s	CN(C1CCc2nn(CC3CC3)c(=O)n2CC1)S(=O)(=O)c1cccnc1 (configuration not stated)
609 s	Cc1cc(N2CCN(C(=O)Nc3ccc4c(c3)OCCO4)CC2)nc(N2CCOCC2)n1
668 s	COc1cc(NC(=O)C2=C(C)OCCS2)c(Cl)cc1C(=O)N1CCN(c2ccccn2)CC1
624 s	CCCNC(=O)CCc1c(-c2ccc(Br)cc2)nc2ccccn12
889 s	COc1cc(OC)cc(C(=O)Nc2ccc(N3CCN(C4CCCCC4)C3=O)nc2)c1
787 s	CCc1ccc(CNC(=O)C2CCCN(c3ncnc4nn(-c5ccc(C)cc5)cc34)C2)cc1 (configuration not stated)
796 s	CN1CCCN(C(c2ccccc2)c2ccc(Cl)cc2)CC1 (configuration not stated)
923 s	Cc1cccc(-n2c(=O)c3c(cc(C)n3C)n(CC(=O)Nc3ccc(Cl)cc3)c2=O)c1
1150 s	Cc1ccccc1-c1nc(C2CCN(S(=O)(=O)c3ccccc3F)CC2)no1
751 s	O=c1n(Cc2ccc(F)cc2Cl)nc2n1CCCCC2
669 s	CNC(=O)C1CCCN(c2nc3ncn(CC(=O)Nc4cccc(SC)c4)c(=O)c3s2)C1 (configuration not stated)
570 s	Cc1ccc(Cn2cc(-c3ccncc3)cc2C(=O)NCCN(C)C)cc1
596 s	CCOc1ccc(S(=O)(=O)Nc2ccc3nc(N4CCN(C)CC4)cc(C(=O)O)c3c2)cc1
614 s	Cc1nc2cc(N3CC(C(=O)Nc4ccc(C)c(C)c4)CC3=O)ccc2o1 (configuration not stated)
759 s	COc1ccc(-c2nnc(-c3ccccc3)o2)cc1S(=O)(=O)NC(C)(C)CO
675 s	Cc1cc(N2CCN(C(=O)Nc3cccc(C(F)(F)F)c3)CC2)nc(N2CCOCC2)n1

RP-LC retention time	SMILES
780 s	CCn1c(=O)c2c(cc(C)n2C)n(CC(=O)Nc2ccc(F)cc2)c1=O
688 s	O=C(NCCC1CCN(C(=O)Nc2cc(F)cc(F)c2)CC1)c1ccsc1
763 s	COc1ccccc1N1CCN(C(=O)CCc2nnc3c4cc(-c5ccccc5)nn4ccn23)CC1
686 s	CCOc1ccc(NS(=O)(=O)c2cc(-c3[nH]ncc3C(=O)N(C)C)oc2C)cc1
832 s	Cc1cc(Cl)ccc1NC(=O)C1CCCN1S(=O)(=O)c1cc2c(cc1C)NC(=O)CO2 (configuration not stated)
1050 s	O=C(COc1ccccc1)Nc1nc(-c2ccc(F)cc2)cs1
690 s	CNC(=O)CN1C(=O)C2CCCCN2c2ccc(S(=O)(=O)N(C)C)cc21 (configuration not stated)
649 s	CCN1CCN(CCCNC(=O)C(C)n2c(=O)c(C(F)(F)F)nc3cc(C)c(C)cc32)CC1 (configuration not stated)
671 s	Cc1cc(C)c(NC(=O)Cn2nc3c4ccccc4ncn3c2=O)c(C)c1
747 s	COC(=O)c1ncn2c1C(=O)N(c1ccc(C)cc1)C(C)(C(=O)NCc1ccc(C)cc1)C2 (configuration not stated)
1010 s	CC(C)Oc1ccc(CNS(=O)(=O)c2cc3c(s2)CCN(C(=O)C2CCC2)C3)cc1
744 s	O=C(NC1CCN(Cc2ccccc2)CC1)C1CCCN(c2ncc(-c3ccc(F)cc3)cn2)C1 (configuration not stated)
740 s	Cc1noc(C)c1-c1ccc(S(=O)(=O)NCCc2ccc(S(N)(=O)=O)cc2)cc1
800 s	O=C1CCCc2cc(S(=O)(=O)NCCc3ccc(Cl)cc3)ccc2N1
846 s	CN1C(=O)c2ccccc2Oc2ccc(C(=O)N3CCCCCC3)cc21
979 s	O=C(c1ccccc1Cl)N1CCC(COCc2ccccc2)CC1
559 s	CCN(CC)CCCNC(=O)CCc1c(-c2ccc(Br)cc2)nc2ccccn12
660 s	CC1CCN(C2=NCCN2C(=O)c2c(F)cccc2F)CC1
825 s	CC1CN(C(=O)C2CCN(S(=O)(=O)c3cccnc3)CC2)c2ccccc2O1 (configuration not stated)
886 s	CCCn1c(-c2cccc(C(=O)NC(CC)c3cccs3)c2)nc2cccnc21 (configuration not stated)
741 s	O=C(c1ccco1)N1CCN(c2ncnc3c2cnn3Cc2ccccc2)CC1
